Laboratory results reported in ChEMBL document CHEMBL1201862, “PubChem BioAssay data set” (2004).
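All cell lines were grown in 96-well plates and treated with compound for 48 hours. GI50 is the concentration that inhibits growth by half.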 Active and inactive are the calls of the source. No stated cut-off is given here; in the data, active = GI50 up to about 1.1 µM and inactive = higher.

Assays:
Assay in all cases: NCI-60 cell line screen, 48 h
COLO 205 = test system: COLO 205
SR = test system: SR
OVCAR-8 = test system: OVCAR-8
SK-MEL-2 = test system: SK-MEL-2
UACC-257 = test system: UACC-257
U-251 = test system: U-251
SK-OV-3 = test system: SK-OV-3
EKVX = test system: EKVX
M19-MEL = test system: M19-MEL
HL-60 = test system: HL-60
MOLT-4 = test system: MOLT-4
A549 = test system: A549
K562 = test system: K562
RXF 631 = test system: RXF 631
M14 = test system: M14
SF-539 = test system: SF-539
RXF 393 = test system: RXF 393
LXFL 529 = test system: LXFL 529
HCT-116 = test system: HCT-116
SNB-75 = test system: SNB-75
IGROV-1 = test system: IGROV-1
HOP-62 = test system: HOP-62
KM-20L2 = test system: KM-20L2
SNB-19 = test system: SNB-19
SNB-78 = test system: SNB-78
HT-29 = test system: HT-29
CAKI-1 = test system: CAKI-1
SN12C = test system: SN12C
NCI-H522 = test system: NCI-H522
NCI-H23 = test system: NCI-H23
SF-268 = test system: SF-268
HOP-18 = test system: HOP-18
NCI-H460 = test system: NCI-H460
HCT-15 = test system: HCT-15
OVCAR-3 = test system: OVCAR-3
UACC-62 = test system: UACC-62
TK-10 = test system: TK-10
SK-MEL-5 = test system: SK-MEL-5
CCRF-CEM = test system: CCRF-CEM
HOP-92 = test system: HOP-92
XF498 = test system: XF498
SW-620 = test system: SW-620
UO-31 = test system: UO-31
OVCAR-4 = test system: OVCAR-4
DLD-1 = test system: DLD-1
OVCAR-5 = test system: OVCAR-5
RPMI-8226 = test system: RPMI-8226
SK-MEL-28 = test system: SK-MEL-28
KM12 = test system: KM12
HCC 2998 = test system: HCC 2998
ACHN = test system: ACHN
A498 = test system: A498
NCI-H226 = test system: NCI-H226
DMS-273 = test system: DMS-273
LOX IMVI = test system: LOX IMVI
SF-295 = test system: SF-295
Malme-3M = test system: Malme-3M

SMILES: O=C(CC1Sc2ccccc2NC1=O)Nc1ccccc1[N+](=O)[O-] (configuration not stated)
- GI50 (COLO 205): > 100 µM (inactive)
- GI50 (SR): 12.2 µM (inactive)
- GI50 (OVCAR-8): > 100 µM (inactive)
- GI50 (SK-MEL-2): > 100 µM (inactive)
- GI50 (UACC-257): > 100 µM (inactive)
- GI50 (U-251): > 100 µM (inactive)
- GI50 (SK-OV-3): > 100 µM (inactive)
- GI50 (EKVX): > 100 µM (inactive)
- GI50 (M19-MEL): > 100 µM (inactive)
- GI50 (HL-60): > 100 µM (inactive)
- GI50 (MOLT-4): 4.33 µM (inactive)
- GI50 (A549): > 100 µM (inactive)
- GI50 (K562): > 100 µM (inactive)
- GI50 (RXF 631): > 100 µM (inactive)
- GI50 (M14): > 100 µM (inactive)
- GI50 (SF-539): > 100 µM (inactive)
- GI50 (RXF 393): > 100 µM (inactive)
- GI50 (LXFL 529): > 100 µM (inactive)
- GI50 (HCT-116): > 100 µM (inactive)
- GI50 (SNB-75): > 100 µM (inactive)
- GI50 (IGROV-1): > 100 µM (inactive)
- GI50 (HOP-62): > 100 µM (inactive)
- GI50 (KM-20L2): > 100 µM (inactive)
- GI50 (SNB-19): > 100 µM (inactive)
- GI50 (SNB-78): > 100 µM (inactive)
- GI50 (HT-29): > 100 µM (inactive)
- GI50 (CAKI-1): > 100 µM (inactive)
- GI50 (SN12C): > 100 µM (inactive)
- GI50 (NCI-H522): 17.1 µM (inactive)
- GI50 (NCI-H23): > 100 µM (inactive)
- GI50 (SF-268): > 100 µM (inactive)
- GI50 (HOP-18): > 100 µM (inactive)
- GI50 (NCI-H460): > 100 µM (inactive)
- GI50 (HCT-15): > 100 µM
- GI50 (OVCAR-3): > 100 µM (inactive)
- GI50 (UACC-62): > 100 µM (inactive)
- GI50 (TK-10): > 100 µM (inactive)
- GI50 (SK-MEL-5): > 100 µM (inactive)
- GI50 (CCRF-CEM): > 100 µM (inactive)
- GI50 (HOP-92): > 100 µM (inactive)
- GI50 (XF498): > 100 µM (inactive)
- GI50 (SW-620): > 100 µM (inactive)
- GI50 (UO-31): > 100 µM (inactive)
- GI50 (OVCAR-4): > 100 µM (inactive)
- GI50 (DLD-1): > 100 µM (inactive)
- GI50 (OVCAR-5): > 100 µM (inactive)
- GI50 (RPMI-8226): > 100 µM (inactive)
- GI50 (SK-MEL-28): > 100 µM (inactive)
- GI50 (KM12): > 100 µM (inactive)
- GI50 (HCC 2998): > 100 µM (inactive)
- GI50 (ACHN): > 100 µM (inactive)
- GI50 (A498): > 100 µM (inactive)
- GI50 (NCI-H226): > 100 µM (inactive)
- GI50 (DMS-273): > 100 µM (inactive)
- GI50 (LOX IMVI): > 100 µM (inactive)
- GI50 (SF-295): > 100 µM (inactive)
- GI50 (Malme-3M): > 100 µM (inactive)
